Data on 27 compounds can be found in patent US12473296B2, “Perk inhibiting compounds” (HiberCell, Inc., priority 2019, dated 2025).

Some results are limits rather than exact numbers.

In assay [1] the target is PERK (Homo sapiens (Human), UniProt Q9NZJ5). Description: PERK cellular assay (TR-FRET, HEK293-EGFP-eIF2α cells, tunicamycin-induced ER stress). The class given is cell-based. The settings on record: tunicamycin 2 hours, read-out: Cellular IC50 (μM) (EIF2a). The method in brief:
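Cells pre-incubated with inhibitor 30 min at 37 °C, then ER stress induced with […] tunicamycin for 2 h. TR-FRET read on lysates; ratio normalized to DMSO control as percent inhibition over a 10-point, 3-fold dilution series; IC50 from 4-parameter logistic fit.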

The target of assay [2] is EIF2AK3 (PERK) catalytic domain (amino acids 536-1116) (Homo sapiens (Human), UniProt Q9NZJ5). Briefly: PERK in vitro activity assay (isolated), TR-FRET kinase assay. The settings on record: isolated PERK enzyme, 1.5 μM ATP, GFP-eIF2a substrate; read-out: Biochemical IC50. The method in brief:
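Human PERK catalytic domain (aa 536-1116) with 100-200 nM GFP-eIF2a in 50 mM HEPES pH 7.5, 10 mM MgCl2, 1.0 mM EGTA, 0.01% Brij-35; enzyme-started reaction run 45 min at room temperature. Stopped with 10 mM EDTA, 2 nM Tb-anti-phospho-eIF2a added for 90 min; IC50 from TR-FRET ratio by 4-parameter logistic fit.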
In general terms: In TR-FRET formats the signal depends on donor and acceptor labels being close together.

Sequence of PERK (Q9NZJ5 30-1116): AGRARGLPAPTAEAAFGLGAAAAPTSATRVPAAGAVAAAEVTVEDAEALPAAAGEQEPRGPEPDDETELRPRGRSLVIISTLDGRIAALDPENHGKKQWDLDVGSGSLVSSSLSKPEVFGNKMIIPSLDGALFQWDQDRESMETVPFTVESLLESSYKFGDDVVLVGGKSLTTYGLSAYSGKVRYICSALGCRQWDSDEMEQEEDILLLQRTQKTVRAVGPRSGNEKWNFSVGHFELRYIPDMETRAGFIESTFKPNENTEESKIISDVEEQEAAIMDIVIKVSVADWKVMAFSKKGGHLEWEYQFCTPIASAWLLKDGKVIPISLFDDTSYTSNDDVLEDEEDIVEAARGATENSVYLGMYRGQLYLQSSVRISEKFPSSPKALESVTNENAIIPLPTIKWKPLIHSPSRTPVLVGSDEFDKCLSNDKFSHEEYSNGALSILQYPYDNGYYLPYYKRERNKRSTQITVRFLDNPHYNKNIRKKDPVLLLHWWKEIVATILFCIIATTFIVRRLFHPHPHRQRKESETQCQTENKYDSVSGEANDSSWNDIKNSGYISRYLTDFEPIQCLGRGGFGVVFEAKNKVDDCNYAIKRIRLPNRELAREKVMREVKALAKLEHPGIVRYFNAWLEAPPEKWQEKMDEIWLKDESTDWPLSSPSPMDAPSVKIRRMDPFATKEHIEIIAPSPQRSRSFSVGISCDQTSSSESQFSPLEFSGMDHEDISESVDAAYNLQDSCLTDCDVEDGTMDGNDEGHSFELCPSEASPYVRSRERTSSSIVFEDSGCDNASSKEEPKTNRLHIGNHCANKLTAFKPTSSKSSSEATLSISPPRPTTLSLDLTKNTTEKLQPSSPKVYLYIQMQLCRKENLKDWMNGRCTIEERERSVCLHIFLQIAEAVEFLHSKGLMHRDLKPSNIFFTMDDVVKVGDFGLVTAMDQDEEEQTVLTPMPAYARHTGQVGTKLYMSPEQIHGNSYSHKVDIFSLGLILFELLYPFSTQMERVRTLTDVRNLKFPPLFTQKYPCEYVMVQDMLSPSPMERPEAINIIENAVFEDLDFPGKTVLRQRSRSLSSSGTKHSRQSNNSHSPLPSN
Sequence of EIF2AK3 (PERK) catalytic domain (amino acids 536-1116) (Q9NZJ5 536-1116): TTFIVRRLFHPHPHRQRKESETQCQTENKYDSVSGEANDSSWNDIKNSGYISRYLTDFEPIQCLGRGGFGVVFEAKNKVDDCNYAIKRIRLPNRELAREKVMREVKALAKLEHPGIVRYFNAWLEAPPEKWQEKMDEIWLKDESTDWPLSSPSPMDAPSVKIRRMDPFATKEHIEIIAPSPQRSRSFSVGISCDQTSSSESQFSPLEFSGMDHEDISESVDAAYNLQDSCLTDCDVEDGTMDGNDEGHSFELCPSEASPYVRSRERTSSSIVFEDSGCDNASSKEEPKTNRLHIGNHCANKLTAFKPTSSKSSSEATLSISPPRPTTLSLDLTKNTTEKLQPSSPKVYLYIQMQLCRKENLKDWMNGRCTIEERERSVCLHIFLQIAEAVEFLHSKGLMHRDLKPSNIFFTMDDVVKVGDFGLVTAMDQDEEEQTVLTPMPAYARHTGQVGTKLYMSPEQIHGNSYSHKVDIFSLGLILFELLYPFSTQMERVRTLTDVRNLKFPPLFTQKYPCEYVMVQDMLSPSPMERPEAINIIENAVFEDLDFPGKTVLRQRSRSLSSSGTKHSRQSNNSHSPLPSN

Take `Cc1cc(NC(=O)C(O)c2cc(F)cc(F)c2)c(F)cc1-c1cnc(N)c(C(=O)NC(C)C)c1` (stereo not drawn) [Example 126, 2-amino-5-(4-(2-(3,5-difluorophenyl)-2-hydroxyacetamido)-5-fluoro-2-methylphenyl)-N-isopropylnicotinamide]: the IC50 was in the range of 0.101 to 0.25 µM in assay [1] and 1 to 25 nM in assay [2].

As for `Cc1cc(NC(=O)C(O)c2cccc(C(F)(F)F)c2)ncc1-c1cnc(N)c(C(=O)NC(C)C)c1` (stereo not drawn) [Example 127, 6-amino-6′-(2-hydroxy-2-(3-(trifluoromethyl)phenyl)acetamido)-N-isopropyl-4′-methyl-[3,3′-bipyridine]-5-carboxamide], the values for the IC50 in assay [1] and in assay [2] were more than 5 µM and 251 to 500 nM, respectively.

In the case of `Cc1cc(NC(=O)C(O)c2cccc(C(F)(F)F)c2)ncc1-c1cnc(N)c(C(=O)NC(C)C)c1` (stereo not drawn) [Example 128, 6-amino-6′-(2-hydroxy-2-(3-(trifluoromethyl)phenyl)acetamido)-N-isopropyl-4′-methyl-[3,3′-bipyridine]-5-carboxamide], the IC50 was more than 5 µM in assay [1] and 51 to 100 nM in assay [2].

Consider `Cc1cc(NC(=O)C(O)c2cc(F)cc(F)c2)ccc1-c1cnc(N)c(C(=O)NC(C)C)n1` (stereo not drawn) [Example 133, 3-amino-6-(4-(2-(3,5-difluorophenyl)-2-hydroxyacetamido)-2-methylphenyl)-N-isopropylpyrazine-2 carboxamide], for which the IC50 in assay [1] lay within 0.101 to 0.25 µM; in assay [2], 51 to 100 nM.

In the case of `Cc1cc(NC(=O)C(O)c2cc(F)cc(F)c2)ccc1-c1cnc(N)c(C(=O)NC(C)C)n1` (stereo not drawn) [Example 134, 3-amino-6-(4-(2-(3,5-difluorophenyl)-2-hydroxyacetamido)-2-methylphenyl)-N-isopropylpyrazine-2-carboxamide], the IC50 in assay [1] lay within 0.026 to 0.05 µM; in assay [2] it was 1 to 25 nM.

For `CNC(=O)c1nc(-c2ccc(NC(=O)C(O)c3cc(F)cc(F)c3)cc2C)cnc1N` (stereo not drawn) [Example 135, 3-amino-6-(4-(2-(3,5-difluorophenyl)-2-hydroxyacetamido)-2-methylphenyl)-N-methylpyrazine-2-carboxamide], the IC50 in assay [1] is 0.026 to 0.05 µM; in assay [2], 1 to 25 nM.

For the compound `Cc1cc(NC(=O)C(O)c2cc(F)cc(F)c2)ccc1-c1cnc(N)c(C(=O)NC2CC2)n1` (stereo not drawn) [Example 138, 3-amino-N-cyclopropyl-6-(4-(2-(3,5-difluorophenyl)-2-hydroxyacetamido)-2-methylphenyl) pyrazine-2-carboxamide], the IC50 lay in the range of 0.026 to 0.05 µM in assay [1] and 1 to 25 nM in assay [2].

As to `Cc1cc(NC(=O)C(O)c2cc(F)cc(F)c2)ccc1-c1cnc(N)c(C(=O)NC2CC2)n1` (stereo not drawn) [Example 139, 3-amino-N-cyclopropyl-6-(4-(2-(3,5-difluorophenyl)-2-hydroxyacetamido)-2-methylphenyl) pyrazine-2-carboxamide], the IC50 in assay [1] was 0.251 to 0.5 µM; in assay [2] it was 1 to 25 nM.

As to `Cc1cc(NC(=O)C(O)c2cc(F)cc(F)c2)ccc1-c1cnc(N)c(C(=O)NCCN(C)C)n1` (stereo not drawn) [Example 146, 3-amino-6-(4-(2-(3,5-difluorophenyl)-2-hydroxyacetamido)-2-methylphenyl)-N-(2-(dimethylamino)ethyl)pyrazine-2-carboxamide], the IC50 in assay [1] was in the range of 0.101 to 0.25 µM; in assay [2] it was 26 to 50 nM.

On to `CCc1cc(NC(=O)C(O)c2cc(F)cc(F)c2)ccc1-c1cnc(N)c(C(=O)NC(C)C)n1` (stereo not drawn) [Example 151, 3-amino-6-(4-(2-(3,5-difluorophenyl)-2-hydroxyacetamido)-2-ethylphenyl)-N-isopropylpyrazine-2-carboxamide], for which the IC50 lay within 0.026 to 0.05 µM in assay [1] and 1 to 25 nM in assay [2].

With `CCc1cc(NC(=O)C(O)c2cc(F)cc(F)c2)ccc1-c1cnc(N)c(C(=O)NC(C)C)n1` (stereo not drawn) [Example 152, 3-amino-6-(4-(2-(3,5-difluorophenyl)-2-hydroxyacetamido)-2-ethylphenyl)-N-isopropylpyrazine-2-carboxamide], the IC50 lay within 0.101 to 0.25 µM in assay [1] and 101 to 250 nM in assay [2].

On to `CCNC(=O)c1nc(-c2ccc(NC(=O)C(O)c3cc(F)cc(F)c3)cc2CC)cnc1N` (stereo not drawn) [Example 153, 3-amino-6-(4-(2-(3,5-difluorophenyl)-2-hydroxyactamido)-2-ethylphenyl)-N-ethylpyrazine-2-carboxamide], for which the values for the IC50 in assay [1] and in assay [2] were 0.026 to 0.05 µM and 1 to 25 nM, respectively.

Take `CCc1cc(NC(=O)C(O)c2cc(F)cc(F)c2)ccc1-c1cnc(N)c(C(=O)NC2CC2)n1` (stereo not drawn) [Example 156, 3-amino-N-cyclopropyl-6-(4-(2-(3,5-difluorophenyl)-2-hydroxyacetamido)-2-ethylphenyl)pyrazine-2-carboxamide]: the IC50 lay in the range of 0.001 to 0.025 µM in assay [1] and 1 to 25 nM in assay [2].

Consider `CCc1cc(NC(=O)C(O)c2cc(F)cc(F)c2)ccc1-c1cnc(N)c(C(=O)NC2CC2)n1` (stereo not drawn) [Example 157, 3-amino-N-cyclopropyl-6-(4-(2-(3,5-difluorophenyl)-2-hydroxyacetamido)-2-ethylphenyl) pyrazine-2-carboxamide], for which the IC50 in assay [1] is 0.101 to 0.25 µM; in assay [2] it was 101 to 250 nM.

Turning to `CCc1cc(NC(=O)C(O)c2cc(F)cc(F)c2)ccc1-c1cnc(N)c(C(=O)NC2COC2)n1` (stereo not drawn) [Example 158, 3-amino-6-(4-(3-(3,5-difluorophenyl)-2-hydroxyacetamido)-2-ethylphenyl)-N-(oxetan-3-yl)pyrazine-2-carboxamide], the figures for the IC50 in assay [1] and in assay [2] were 0.001 to 0.025 µM and 1 to 25 nM, respectively.

Regarding `CCc1cc(NC(=O)C(O)c2cc(F)cc(F)c2)ccc1-c1cnc(N)c(C(=O)NC2COC2)n1` (stereo not drawn) [Example 159, 3-amino-6-(4-(2-(3,5-difluorophenyl)-2-hydroxyacetamido)-2-ethylphenyl)-N-(oxetan-3-yl)pyrazine-2-carboxamide], the IC50 lay in the range of 0.101 to 0.25 µM in assay [1] and 26 to 50 nM in assay [2].

`CCc1cc(NC(=O)C(O)c2cccc(C)c2)ccc1-c1cnc(N)c(C(=O)NC(C)C)n1` (stereo not drawn) [Example 160, 3-amino-6-(2-ethyl-4-(2-hydroxy-2-(m-tolyl)acetamido)phenyl)-N-isopropylpyrazine-2-carboxamide]: the half-maximal inhibitory concentration (IC50) in assay [1] lay in the range of 0.001 to 0.025 µM; in assay [2], 1 to 25 nM.

With `CCc1cc(NC(=O)C(O)c2cccc(C)c2)ccc1-c1cnc(N)c(C(=O)NC(C)C)n1` (stereo not drawn) [Example 161, 3-amino-6-(2-ethyl-4-(2-hydroxy-2-(m-tolyl)acetamido)phenyl)-N-isopropylpyrazine-2-carboxamide], the IC50 in assay [1] lay within 0.251 to 0.5 µM; in assay [2], 51 to 100 nM.

Consider `Nc1ncc(-c2ccc(NC(=O)C(O)c3cc(F)cc(F)c3)cc2Cl)nc1C(=O)NCC(F)(F)F` (stereo not drawn) [Example 164, 3-amino-6-(2-chloro-4-(2-(3,5-difluorophenyl)-2-hydroxyacetamido)phenyl)-N-(2,2,2-trifluoroethyl) pyrazine-2-carboxamide], for which the IC50 in assay [1] was 0.251 to 0.5 µM; in assay [2], 1000 to 2000 nM.

As for `Nc1ncc(-c2ccc(NC(=O)C(O)c3cc(F)cc(F)c3)cc2Cl)nc1C(=O)NCC(F)(F)F` (stereo not drawn) [Example 165, 3-amino-6-(2-chloro-4-(2-(3,5-difluorophenyl)-2-hydroxyacetamido)phenyl)-N-(2,2,2-trifluoroethyl) pyrazine-2-carboxamide], the IC50 in assay [1] was in the range of 0.026 to 0.05 µM; in assay [2], 51 to 100 nM.

Consider `Nc1ncc(-c2ccc(NC(=O)C(O)c3cc(F)cc(F)c3)cc2Cl)nc1C(=O)NC1COC1` (stereo not drawn) [Example 168, 3-amino-6-(2-chloro-4-(2-(3,5-difluorophenyl)-2-hydroxyacetamido)phenyl)-N-(oxetan-3-yl)pyrazine-2-carboxamide], for which the IC50 was 0.101 to 0.25 µM in assay [1] and 51 to 100 nM in assay [2].

As to `Nc1ncc(-c2ccc(NC(=O)C(O)c3cc(F)cc(F)c3)cc2Cl)nc1C(=O)NC1COC1` (stereo not drawn) [Example 169, 3-amino-6-(2-chloro-4-(2-(3,5-difluorophenyl)-2-hydroxyacetamido)phenyl)-N-(oxetan-3-yl)pyrazine-2-carboxamide], the figures for the IC50 in assay [1] and in assay [2] were 0.001 to 0.025 µM and 1 to 25 nM, respectively.

For `Cc1cc(NC(=O)C(O)c2cc(F)cc(F)c2)ccc1-c1ccc(N)nc1` (stereo not drawn) [Example 170, N-(4-(6-aminopyridin-3-yl)-3-methylphenyl)-2-(3,5-difluorophenyl)-2-hydroxyacetamide], the IC50 fell in the range of 2 to 3 µM in assay [1] and 51 to 100 nM in assay [2].

Take `Cc1cc(NC(=O)C(O)c2cc(F)cc(F)c2)ccc1-c1ccc(N)nc1` (stereo not drawn) [Example 171, N-(4-(6-aminopyridin-3-yl)-3-methylphenyl)-2-(3,5-difluorophenyl)-2-hydroxyacetamide]: the IC50 in assay [1] is more than 5 µM; in assay [2] it was 251 to 500 nM.

Take `CNc1ccc(-c2ccc(NC(=O)C(O)c3cc(F)cc(F)c3)cc2C)cn1` (stereo not drawn) [Example 172, 2-(3,5-difluorophenyl)-2-hydroxy-N-(3-methyl-4-(6-(methylamino)pyridin-3-yl)phenyl) acetamide]: the IC50 was 1 to 2 µM in assay [1] and 51 to 100 nM in assay [2].

As to `CNc1ccc(-c2ccc(NC(=O)C(O)c3cc(F)cc(F)c3)cc2C)cn1` (stereo not drawn) [Example 173, 2-(3,5-difluorophenyl)-2-hydroxy-N-(3-methyl-4-(6-(methylamino)pyridin-3-yl)phenyl)acetamide], the IC50 in assay [1] is more than 5 µM; in assay [2] it was 101 to 250 nM.

Consider `CNc1ncc(-c2ccc(NC(=O)C(O)c3cc(F)cc(F)c3)cc2C)cc1C(=O)NC(C)C` (stereo not drawn) [Example 174, 5-(4-(2-(3,5-difluorophenyl)-2-hydroxyacetamido)-2-methylphenyl)-N-isopropyl-2-(methylamino) nicotinamide], for which the IC50 in assay [1] lay in the range of 4 to 5 µM; in assay [2], 101 to 250 nM.

For orientation: IC50 means the concentration that gives 50% inhibition.
